Data as given in ChEMBL document CHEMBL6103573, “Discovery of novel thienopyridine indole derivatives as inhibitors of tubulin polymerization targeting the colchicine-binding site with potent anticancer activities” (Eur J Med Chem, 2025).
Calls of active or inactive are those of the source. No cut-off for these calls is given here.

Assays:
MGC-803 [1] = assay: Induction of apoptosis in human MGC-803 cells assessed as increase in cleaved Caspase-7 expression at 0.25 to 2.0 nmol/L incubated for 48 hrs by Western blotting analysis; format: functional, cell-based; conditions: dose 0.25-2 nmol/L
HUVEC = assay: Anti-angiogenesis activity in HUVEC cells assessed as reduction in cell viability by measuring survival rate at 2 nmol/L incubated for 48 hrs by MTT assay relative to control; format: functional; conditions: Homo sapiens, read-out: Survival
HGC-27 [2] = assay: Induction of apoptosis in human HGC-27 cells assessed as late apoptotic cells at 2.0 nmol/L incubated for 48 hrs by Annexin V-FITC/propidium iodide staining based flow cytometry analysis (reference value: 3.70 %); format: functional
Tubulin (Homo sapiens) [3] = target: T1, Tubulin (Homo sapiens) (UniProt P68371+Q9H4B7+P0DPH7+P68366+Q13509+Q71U36+P04350+Q3ZCM7+P07437+P68363+Q9BQE3+Q6PEY2+Q13885+Q9BVA1+Q9BUF5); assay: Disruption of microtubule network in human HGC-27 cells assessed as irregular cellular morphology at 0.25 to 2.0 nmol/L incubated for 24 hrs by DAPI staining based fluorescence microscopic analysis; format: cell-based; conditions: dose 0.25-2 nmol/L
HGC-27 [4] = assay: Induction of apoptosis in human HGC-27 cells assessed as increase in cleaved Caspase-7 expression at 0.25 to 2.0 nmol/L incubated for 48 hrs by Western blotting analysis; format: functional, cell-based; conditions: dose 0.25-2 nmol/L
Tubulin (Homo sapiens) [5] = target: T1, Tubulin (Homo sapiens); assay: Inhibition of tubulin (unknown origin) polymerization assessed as decrease in fluorescence intensity at 3 micromol/L in the presence of GTP by fluorescence microplate reader; format: protein-complex assay; conditions: dose 3.0 µmol/L
MGC-803 [6] = assay: Induction of cell cycle arrest in human MGC-803 cells assessed as downregulation of Wee1 level measured after 48 hrs by Western blot analysis; format: functional, cell-based; conditions: dose 0.25-2 nmol/L
MGC-803 [7] = assay: Induction of apoptosis in human MGC-803 cells assessed as downregulation of Bcl-2 expression incubated for 48 hrs by Western blotting analysis; format: functional, cell-based; conditions: dose 0.25-2 nmol/L
MGC-803 [8] = assay: Antiproliferative activity against human MGC-803 cells by MTT assay; format: functional, cell-based; conditions: dose 0.25-2 nmol/L
MGC-803 [9] = assay: Antitumor activity against human MGC-803 cells xenografted in female BALB/c-nu nude mouse assessed as increase in p-Histone H3 level in tumor at 5 mg/kg, po administrated every other day for 11 times and measured after 21 days by immunohistochemical analysis; format: functional, organism-based; conditions: time 21.0 day
MDA-MB-231 = assay: Antiproliferative activity against human MDA-MB-231 cells assessed as inhibition of cell proliferation incubated for 48 hrs by MTT assay; format: functional, cell-based; conditions: MDA-MB-231, 48 h
HGC-27 [10] = assay: Induction of cell cycle arrest in human HGC-27 cells assessed as downregulation of Wee1 level measured after 48 hrs by Western blot analysis; format: functional, cell-based; conditions: dose 0.25-2 nmol/L
MGC-803 [11] = assay: Induction of apoptosis in human MGC-803 cells assessed as total apoptotic rate at 2 nmol/L incubated for 48 hrs by Annexin V-FITC/propidium iodide staining based flow cytometry analysis relative to control; format: functional
[12] = target: Tubulin beta (Homo sapiens) (UniProt P68371+Q9H4B7+Q13509+P04350+Q3ZCM7+P07437+Q13885+Q9BVA1+Q9BUF5+A6NNZ2); assay: Competitive binding affinity to beta-tubulin colchicine binding site in human HGC-27 cells assessed as inhibition of EBI-beta-tubulin adduct band formation at 1 umol/L preincubated for 2 hrs followed by EBI addition and measured after 2 hrs by Western blotting analysis; format: cell-based; conditions: dose 1.0 µmol/L, time 4.0 hrs
HGC-27 [13] = assay: Induction of apoptosis in human HGC-27 cells assessed as increase in dead to live cells ratio at 0.25 to 2.0 nmol/L incubated for 48 hrs by Calcein-AM/PI staining based analysis; format: functional, cell-based; conditions: dose 0.25-2 nmol/L
[14] = Toxicity in female BALB/c-nu nude mouse xenografted with human MGC-803 cells assessed as change in lung morphology at 5 mg/kg, po administrated every other day for 11 times and measured after 21 days by hematoxylin and eosin staining based analysis; format: organism-based; conditions: in vivo, 504 h, time 21 day
MGC-803 [15] = assay: Induction of apoptosis in human MGC-803 cells assessed as late apoptotic cells at 0.5 nmol/L incubated for 48 hrs by Annexin V-FITC/propidium iodide staining based flow cytometry analysis (reference value: 2.22 %); format: functional
MGC-803 [16] = assay: Induction of apoptosis in human MGC-803 cells assessed as early apoptotic cells at 1.5 nmol/L incubated for 48 hrs by Annexin V-FITC/propidium iodide staining based flow cytometry analysis (reference value: 0.83 %); format: functional
HGC-27 [17] = assay: Induction of cell cycle arrest in human HGC-27 cells assessed as accumulation of cells at G2/M phase incubated for 24 hrs by RNase A/propidium iodide staining based flow cytometric analysis; format: functional; conditions: dose 0.25-2 nmol/L
MGC-803 [18] = assay: Induction of apoptosis in human MGC-803 cells incubated for 48 hrs by Annexin V-FITC/propidium iodide staining based flow cytometry analysis; format: functional, cell-based; conditions: dose 0.25-2 nmol/L
MGC-803 [19] = assay: Induction of cell cycle arrest in human MGC-803 cells assessed as downregulation of Cdc2 phosphorylation at Tyr15 residue measured after 48 hrs by Western blot analysis; format: functional, cell-based; conditions: dose 0.25-2 nmol/L
HGC-27 [20] = assay: Induction of apoptosis in human HGC-27 cells assessed as early apoptotic cells at 1.5 nmol/L incubated for 48 hrs by Annexin V-FITC/propidium iodide staining based flow cytometry analysis (reference value: 2.04 %); format: functional
HGC-27 [21] = assay: Antiproliferative activity against human HGC-27 cells assessed as reduction in cell viability incubated for 48 hrs by MTT assay; format: functional, cell-based; conditions: dose 0.25-10 nmol/L
HGC-27 [22] = assay: Antiproliferative activity against human HGC-27 cells assessed as survival rate at 2 nmol/L measured after 6 hrs by MTT assay relative to control; format: functional; conditions: read-out: Survival
MGC-803 [23] = assay: Induction of apoptosis in human MGC-803 cells assessed as appearance of bright cells at 0.25 to 2.0 nmol/L incubated for 48 hrs by bright field microscopic analysis; format: functional, cell-based; conditions: dose 0.25-2 nmol/L
HGC-27 [24] = assay: Induction of apoptosis in human HGC-27 cells assessed as increase in cleaved Caspase-3 expression at 0.25 to 2.0 nmol/L incubated for 48 hrs by Western blotting analysis; format: functional, cell-based; conditions: dose 0.25-2 nmol/L
HGC-27 [25] = assay: Induction of cell cycle arrest in human HGC-27 cells assessed as accumulation of cells at G2/M phase at 2 nmol/L incubated for 24 hrs by RNase A/propidium iodide staining based flow cytometric analysis relative to control; format: functional
MGC-803 [26] = assay: Induction of apoptosis in human MGC-803 cells assessed as late apoptotic cells at 0.25 nmol/L incubated for 48 hrs by Annexin V-FITC/propidium iodide staining based flow cytometry analysis (reference value: 2.22 %); format: functional
MGC-803 [27] = assay: Induction of apoptosis in human MGC-803 cells assessed as cell rupture at 0.25 to 2.0 nmol/L incubated for 48 hrs by bright field microscopic analysis; format: functional, cell-based; conditions: dose 0.25-2 nmol/L
MGC-803 [28] = assay: Induction of apoptosis in human MGC-803 cells assessed as cell contraction at 0.25 to 2.0 nmol/L incubated for 48 hrs by bright field microscopic analysis; format: functional, cell-based; conditions: dose 0.25-2 nmol/L
MGC-803 [29] = assay: Induction of apoptosis in human MGC-803 cells assessed as early apoptotic cells at 1.0 nmol/L incubated for 48 hrs by Annexin V-FITC/propidium iodide staining based flow cytometry analysis (reference value: 0.83 %); format: functional
[30] = Cytotoxicity against human GES1 cells assessed as inhibition of cell proliferation incubated for 48 hrs by MTT assay; format: toxicity, cell-based
HGC-27 [31] = assay: Induction of apoptosis in human HGC-27 cells incubated for 48 hrs by Annexin V-FITC/propidium iodide staining based flow cytometry analysis; format: functional, cell-based; conditions: dose 0.25-2 nmol/L

CN(c1ccc2c(ccn2C)c1)c1nc(N2CCCC2)nc2sccc12
Activity (MGC-803 [1]): Active | viability at 0.002 µM (HUVEC): 28.3% | Activity (HGC-27 [2]): 5.64% | Activity (Tubulin (Homo sapiens) [3]): Active | Activity (HGC-27 [4]): Active | inhibition (Tubulin (Homo sapiens) [5]): Active | Activity (MGC-803 [6]): Dose-dependent-effect | Activity (MGC-803 [7]): Dose-dependent-effect | Activity (MGC-803 [8]): Dose-dependent-effect | Activity (MGC-803 [9]): Active | IC50 (MDA-MB-231): 2.58 nM | Activity (HGC-27 [10]): Dose-dependent-effect | Activity (MGC-803 [11]): 63% | Activity [12]: Active; Stronger Affinity Observed | Activity (HGC-27 [13]): Active | Activity [14]: Non-toxic | Activity (MGC-803 [15]): 2.84% | Activity (MGC-803 [16]): 43.09% | Activity (HGC-27 [17]): Dose-dependent-effect | Activity (MGC-803 [18]): Dose-dependent-effect | Activity (MGC-803 [19]): Dose-dependent-effect | Activity (HGC-27 [20]): 15.58% | Activity (HGC-27 [21]): Dose-dependent-effect | viability at 0.002 µM (HGC-27 [22]): 83% | Activity (MGC-803 [23]): Active | Activity (HGC-27 [24]): Active | Activity (HGC-27 [25]): 43.9% | Activity (MGC-803 [26]): 3.42% | Activity (MGC-803 [27]): Active | Activity (MGC-803 [28]): Active | Activity (MGC-803 [29]): 16.83% | IC50 at 48 h [30]: 31.1 nM | Activity (HGC-27 [31]): Dose-dependent-effect
